One data set concerns isolated aorta. Briefly: Experiment 3 Relaxing activity on the isolated aorta (30 mM KCl contracted). More on the design: species or system Japanese white rabbit. The settings on record: for EC50: Oryctolagus cuniculus, 30 mM KCl contraction, maximum relaxation by papaverine = 100%, read-out: EC50 (concentration for 50% relaxation); for relaxing / vasodilating activity on isolated aorta (in words): Table 8, comparison with nifedipine and nicardipine hydrochloride, etc. where stated.

The test system of data set [1] is isolated heart. Description: Experiment 2-1 Activity on isolated heart. On the set-up: species or system Japanese white rabbit. Particulars: for activation at 3 µg/heart / inhibition at 3 µg/heart, 3 µg/heart / inhibition at 3 µg/heart: Oryctolagus cuniculus, 3 μg/heart; for activation at 3 µg/heart: read-out: Increase of coronary perfusion; for inhibition at 3 µg/heart, 3 µg/heart: read-out: Inhibitory rate of systole; for inhibition at 3 µg/heart: read-out: Reducing rate of heart pulse. The gist of the method: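 Isolated heart preparation from Japanese white rabbits (2.2–2.5 kg) anaesthetised with nembutal 20 mg/kg i.v. Compound was given after 90 min of stabilisation. Perfusion volume was measured by drop counting, and heart rate and contractility via a force-displacement transducer.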

In data set [2] the test system is Spontaneously hypertensive male rats. Description: Experiment 1-1 Hypotensive activity (oral, conscious spontaneously hypertensive rats). Type of data set: in vivo, rat. Particulars: for Maximum hypotension: mean blood pressure; for hypotensive activity (in words): Table 4, comparison with nifedipine and nicardipine hydrochloride where stated.
Data set [3] in a line: Experiment 4-1 Acute toxicity. The settings on record: rat, in vivo; oral, male rats, 5 week age, 7 days. From the text: Wistar male rats (5 week age, weighing 105-135 g) were used. The compounds of Example Nos. 2, 3 and 7 were each orally administered to the animals in the form of a suspension in 0.5% methyl cellulose solution.
For data set [4], the system named is Spontaneously hypertensive male rats. Description: Experiment 1-2 Hypotensive activity (oral, 8 hours). Type of data set: in vivo, rat. The protocol:
Spontaneously hypertensive male rats (13-15 week age, one group: 3 rats) were used. […] The rats were fixed in a Howlman cage without fasting, and the femoral arterial pressure was measured by a direct method without anesthesia with a cannula which was previously inserted into the femoral artery of the animal, via a pressure transducer (MPU-0.5, manufactured by Nippon Koden K.K.). The test compounds were orally administered in the form of a suspension in 0.5% methyl cellulose solution in a dose of 10 mg/kg (in some compounds, 3 mg/kg). In the control group, only 0.5% methyl cellulose solution was administered likewise. The blood pressure was measured for 5 hours after the administration of test compounds.
The hypotensive activity was measured in the same manner as described in Experiment 1-1 except that the rats were used in 3-5 rats per each group, and the test compounds were administered in a dose of 1 mg/kg (some compounds, 3 mg/kg), and the blood pressure was measured for 8 hours after the administration of test compounds.

Data set [5] can be described thus: Experiment 4-2 Acute toxicity, mice. Particulars: mouse, in vivo, po, 4 week age, 7 days. From the text: (§1) Wistar male and female rats (4 week age) and ddy male and female mice (4 week age) were used. The compounds of Example Nos. 82 and 83 were each orally administered to […].
Data set [6] can be described thus: Experiment 4-2 Acute toxicity, rats. Particulars: rat, in vivo, po, 4 week age, 7 days.
Text: as §1

In data set [7] the test system is isolated heart. Description: Experiment 2-2 Activity onto the isolated heart (with duration). More on the design: species or system Japanese white rabbit. Particulars: 3 μg/heart. The procedure:
Japanese white rabbit (weighing 2.2-2.5 kg) was anesthetized by introvenous injection of nembutal (20 mg/kg) and then sacrificed by bleeding from common carotid artery. […] There were measured the perfusion volume with a drop-counting meter (ET-600G type, manufactured by Nippon Koden K.K.) and the heart pulse and the contractility via a force-displacement transducer (FD pick up, SB-IT type, manufactured by Nippon Koden K.K.) (for measuring heart pulse, an instant pulse meter (AT-601G type, minufactured by Nippon Koden K.K.) being further used).
The test compounds were dissolved in ethanol, and the solution was diluted in 100-fold with purified water, and the diluted solution was administered in an amount of 0.1 ml/heart (i.e. 3 μg/heart).
The activity was measured in the same manner as described in Experiment 2-1 except that in some test compounds, the dose was in 1 μg/heart. Besides, the duration of the activity was evaluated by counting the time until the coronary perfusion volume became to the initial level before the administration of the test compound.

Entries after “also recorded” stand apart in the source; their conditions may differ. Some results are limits rather than exact numbers.

Description for isolated aorta: Japanese white rabbit (weighing 2.3-2.7 kg) was sacrificed by bleeding from common carotid artery. Immediately, the aorta was isolated and cut into a sprial strip. The strip preparation was vertically suspended under a resting tension of 2.0 g in a tissue bath containing 20 ml of modified Ringer solution while bubbling with a mixture of 95% O2 +5% CO2 by connecting one end of the strip to a lever of the above-mentioned FD pick up. The aortic strip was contracted with 30 mM KCl. When the contraction became constant, the test compound was accumulatively administered, and the relaxing effect was measured. After the final treatment, 10^-4T M papaverine was administered and the maximum relaxation obtained thereby was taken as 100%. In comparison with the maximum relaxation obtained by papaverine, the rate of relaxation by the test compounds was evaluated, and the concentration of the test compounds for obtaining 50% relaxation (EC50) was calculated.
The test compound was dissolved in ethanol, and the solution was diluted in 100 to 1×10^4 folds with a nutrient solution, and the diluted solution was administered.

In the case of `CCCCCCOC(=O)C1=C(C)NC(C)=C(C(=O)NC(C)C)C1c1ccccc1[N+](=O)[O-]` (centres unmarked) [Example 7, n-hexyl 2,6-dimethyl-3-isopropylaminocarbonyl-4-(o-nitrophenyl)-1,4-dihydropyridine-5-carboxylate], in the data set on isolated aorta, the EC50 amounted to 130 nM and the “relaxing / vasodilating activity on isolated aorta (in words)” value (from here on “relaxing / vasodilating activity”) was “somewhat weak vasodilating activity”. Also, in the data set with isolated heart [1], the activation at 3 µg/heart stood at 45%; the inhibition at 3 µg/heart, 3 µg/heart came out at 30%; the inhibition at 3 µg/heart was 25%. Moreover, the “inhibitions on the heart pulse and contactility (in words)” value with isolated heart [1] (Table 6) was “moderate inhibitions on the heart pulse and contactility”. Moreover, the “coronary vasodilating activity (in words)” value with isolated heart [1] (Table 6, comparison with nifedipine and nicardipine hydrochloride, etc.) is recorded as “the same or more potent coronary vasodilating activity with longer duration”. Also, in data set [2] (10 mg/kg oral), the Recovering time was above 5.0 h, the “Time for recovering 1/2 of max. hypotension” value (shortened to “Time … of max. hypotension”) is 5.0 h, the “Time until reaching to max. hypotension” value was 30 min and the Maximum hypotension worked out at 45 mmHg. The “hypotensive activity (in words)” value in data set [2] is “the same or more potent activity with longer duration; also recorded: potent hypotensive activity”. Further, in data set [3], the LD50 at 168 h was above 1000 mg/kg.

As for `CCCCCCCCOC(=O)C1=C(C)NC(C)=C(C(=O)NC2CC2)C1c1ccccc1[N+](=O)[O-]` (centres unmarked) [Example 82, n-octyl 2,6-dimethyl-3-cyclopropylaminocarbonyl-4-(o-nitrophenyl)-1,4-dihydropyridine-5-carboxylate], in the data set on isolated aorta, the EC50 was 440 nM and the “relaxing / vasodilating activity” value is recorded as “somewhat weak vasodilating activity”. In addition, in data set [4] (1 mg/kg oral), the Maximum hypotension is 48 mmHg, the Recovering time is above 8.0 h, the “Time … of max. hypotension” value was above 8.0 h and the “Time until reaching to max. hypotension” value is 180 min. Moreover, the “hypotensive activity (in words)” value in data set [4] (Table 5, comparison with nifedipine and nicardipine hydrochloride where stated) is “the same or more potent hypotensive activity with longer duration; also recorded: potent hypotensive activity”. The 50% lethal dose (LD50) at 168 h in data set [5] (female mice) is 1140 mg/kg. Besides, the median lethal dose (LD50) at 168 h in data set [5] (male mice) came out at 1280 mg/kg. This compound had an LD50 at 168 h in data set [6] (female rats) of 50 mg/kg. The 50% lethal dose (LD50) at 168 h in data set [6] (male rats) is 320 mg/kg. In the data set with isolated heart [7] (time until perfusion volume returned to initial level), the “Coronary perfusion Duration” value was above 120 min. The activation at 3 µg/heart in the data set on isolated heart [7] (Oryctolagus cuniculus, read-out: Coronary perfusion Increase) turned out to be 39%. In the data set with isolated heart [7] (Oryctolagus cuniculus, read-out: Inhibitory rate of systole), the inhibition at 3 µg/heart stood at 30%. In the data set with isolated heart [7] (Oryctolagus cuniculus, read-out: Reducing rate of heart pulse), the inhibition at 3 µg/heart stood at 25%.

As for `CCCCCCCCOC(=O)C1=C(C)NC(C)=C(C(=O)NC(C)C)C1c1ccccc1[N+](=O)[O-]` (centres unmarked) [Example 2, n-octyl 2,6-dimethyl-3-isopropylaminocarbonyl-4-(o-nitrophenyl)-1,4-dihydropyridine-5-carboxylate], in the data set with isolated aorta, the EC50 turned out to be 300 nM and the “relaxing / vasodilating activity” value is reported as “somewhat weak vasodilating activity”. For the same compound, in the data set on isolated heart [1], the activation at 3 µg/heart came out at 17%; the inhibition at 3 µg/heart, 3 µg/heart was determined as 50%; the inhibition at 3 µg/heart worked out at 25%. Besides, in the data set on isolated heart [1] (Table 6), the “inhibitions on the heart pulse and contactility (in words)” value is “moderate inhibitions on the heart pulse and contactility”. In data set [2] (3 mg/kg oral), the Recovering time was above 5.0 h, the “Time … of max. hypotension” value amounted to 5.0 h, the “Time until reaching to max. hypotension” value stood at 30 min and the Maximum hypotension is 55 mmHg. The “hypotensive activity (in words)” value in data set [2] is recorded as “the same or more potent activity with longer duration; also recorded: potent hypotensive activity”. In data set [3], this compound yielded an LD50 at 168 h of 10 to 100 mg/kg.

As to `CCCCCCCCCOC(=O)C1=C(C)NC(C)=C(C(=O)NC(C)C)C1c1ccccc1[N+](=O)[O-]` (centres unmarked) [Example 3, n-nonyl 2,6-dimethyl-3-isopropylaminocarbonyl-4-(o-nitrophenyl)-1,4-dihydropyridine-5-carboxylate], the EC50 with isolated aorta worked out at 180 nM. Also, in the data set on isolated heart [1], the activation at 3 µg/heart was found to be 40%; the inhibition at 3 µg/heart, 3 µg/heart was 55%; the inhibition at 3 µg/heart worked out at 20%. In data set [2] (3 mg/kg oral), the Recovering time was above 5.0 h, the “Time … of max. hypotension” value was above 5.0 h, the “Time until reaching to max. hypotension” value stood at 30 min and the Maximum hypotension was determined as 60 mmHg. Also, in data set [2] (10 mg/kg oral), the Recovering time is above 5.0 h, the “Time … of max. hypotension” value is above 5.0 h, the “Time until reaching to max. hypotension” value was 30 min and the Maximum hypotension is 91 mmHg. The compound also returned an LD50 at 168 h in data set [3] of 500 to 1000 mg/kg.

The values above are taken from patent US4874773A, “3-Aminocarbonyl-1,4-dihydropyridine-5-carboxylic acid compounds, and pharmaceutical composition containing the same” (priority 1985, dated 1989).
